# In PubChem BioAssay (NCI):
# Where “and” joins values, the source holds several entries; their conditions need not be identical. Equal values may be shown once.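 How tested: cells in 96-well plates exposed to compound for 48 hours at five concentrations. GI50 is the concentration that inhibits growth by half. TGI: concentration producing complete growth inhibition.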
# What was measured:
# Assay in all cases: NCI tumour cell line growth inhibition, 48 h
# XF 498 CNS = test system: XF 498 CNS
# DLD-1 colon = test system: DLD-1 colon
# SNB-78 CNS = test system: SNB-78 CNS
# KM20L2 colon = test system: KM20L2 colon
# DMS 114 small cell lung = test system: DMS 114 small cell lung
# RXF-631 renal = test system: RXF-631 renal
# MDA-N = test system: MDA-N
# P388 leukemia = test system: P388 leukemia
# P388/ADR leukemia = test system: P388/ADR leukemia
# SN12K1 renal = test system: SN12K1 renal
Structure (SMILES),TGI (XF 498 CNS) [µM],TGI (DLD-1 colon) [µM],TGI (SNB-78 CNS) [µM],TGI (KM20L2 colon) [µM],TGI (DMS 114 small cell lung) [µM],TGI (RXF-631 renal) [µM],TGI (MDA-N),further results
O=[N+]([O-])c1ccc(-c2ccc(C3=Nn4c(CNc5ccccc5Cl)nnc4SC3)o2)cc1,> 100,> 100,> 100,> 100,,,,
CC(=O)OCC(=O)[C@@]1(O)CC[C@H]2[C@@H]3C[C@H](C)C4=CC(=O)C=C[C@]4(C)[C@@]3(F)[C@@H](O)C[C@@]21C,> 100,> 100,> 100,> 100,> 100,> 100,,
O=C1N[C@@H]2CCCC[C@@H]2C12CCCCC2,> 100,> 100,> 100,> 100,,> 100,,
CCOC(=O)c1ccc(N=Nc2ccc(N(CCC#N)CCC#N)cc2C)cc1,,> 100,> 100,,> 100,> 100,,
OC(c1ccccc1Br)(c1ccccc1Br)C(F)(F)F,38.2,97.6,,52.3,38.2,,,
CCO/C=C1\SC(=S)N(c2ccc(OCC)cc2)C1=O,,,,,,,> 100 µM,
O=C(CCCC(=O)Nc1ccc(Cl)cc1Cl)CC(=O)c1ccc2ccccc2c1,,> 100,> 100,> 100,> 100,> 100,,
c1ccc(C(c2ccccc2)c2ccccn2)cc1,> 100,> 100,> 100,> 100,> 100,> 100,,
COc1ccc2nc(NC(=O)C(=O)CC(=O)c3ccc([N+](=O)[O-])cc3)sc2c1,> 100,> 100,,> 100,> 100,> 100,,
CCOC(=O)C1=C(NC)OCC1=O,> 100,,> 100,> 100,> 100,> 100,,
O=C1NC(=O)C2C(=O)NC(=O)C1C2Cc1ccco1 (stereo not given),> 100,> 100,> 100,> 100,> 100,,,
COC(=O)C1=C(C(=O)OC)C2(c3ccccc3)OC1(c1ccccc1)c1cc3ccccc3cc12,,3.46,,3.76,,4.69,,
Cc1ccc(S(=O)(=O)NCCCCC(N)C(=O)O)cc1 (stereo not given),,,,,,,> 100 µM,
NC1=NC(Cn2nc(-c3ccccc3)c3ccccc3c2=O)=NNC(=O)N1,,> 100,> 100,,,,,
CC(=O)Nc1ccc(C2CC(c3ccc([N+](=O)[O-])cc3)=Nc3ccccc3S2=O)cc1 (stereo not given),55.8,34.5,,57.5,69.1,,,
COc1cc(/C=C2\NC(=O)C(Cc3cc(OC)c(OC)c(C)c3OC)N(C(C)=O)C2=O)c(OC)c(C)c1OC (stereo not given),,> 100,,> 100,> 100,,,
CCOC(=O)/C(=C/c1ccccn1)C(=O)c1ccccc1,30.3,29.5,38.9,51.6,28.5,28.9,,
N#Cc1ccc(Sc2nc3ccccc3[nH]2)cc1,,> 100,> 100,,> 100,,,
COc1cc(/C=C/c2csnn2)cc(OC)c1OC,> 100,> 100,> 100,,> 100,,,
O=C(O)CN(CCN(CC(=O)O)CC(=O)O)CC(=O)O.[Mn+2],,,,,,,> 100 µM,GI50 (MDA-N): > 100 µM

Structure (SMILES),TGI (XF 498 CNS) [µM],TGI (DLD-1 colon) [µM],TGI (SNB-78 CNS) [µM],TGI (KM20L2 colon) [µM],TGI (DMS 114 small cell lung) [µM],TGI (RXF-631 renal) [µM],TGI (MDA-N),further results
COc1ccc(/C=C2\C(=O)N(NC(C)=O)c3ccccc32)cc1,> 100,> 100,> 100,> 100,> 100,> 100,,
COC(=O)C(C(=O)C(=O)Nc1c(Cl)cc([N+](=O)[O-])cc1Cl)c1csc(-n2nc(C3=CCCCC3)cc2-c2ccccc2)n1 (stereo not given),,> 100,> 100,> 100,,> 100,,
CCOC(=O)C1(C)CCC(C(C(=O)O)C(=O)O)CC1=O (stereo not given),,> 100,> 100,> 100,> 100,> 100,,
CC1NOC(=O)C1N=Nc1ccc(Cl)cc1Cl (stereo not given),45,> 100,69.2,> 100,53.9,> 100,,
CCCCCC/C=C\CCCCCCCCC(=O)c1cccc(OC)c1OC,,,,,,,> 100 µM,
NC(N)=NCCCC(NCc1c2ccccc2nc2ccccc12)C(=O)O (stereo not given),,50.5,,86.7,79.4,,> 100 µM,
COc1cc(OC)c(OC)cc1/C=C/c1nc2ccccc2s1,,,,,,,> 100 µM,
O=C1C2C3C=CC(C2C(=O)N1CO)C1C2C(=O)N(CO)C(=O)C2C31 (stereo not given),> 100,> 73.7,> 100,> 31.6,> 58.6,> 100,,
CC(C)Cc1ccc(C(C)/C=C2\CCC(CN(C)C)C2=O)cc1 (stereo not given),36.5,40,36.3,51.4,46.1,,22.2 µM,
NNC(=O)C(=O)NN=C(C(Cl)(Cl)CO)C(Cl)(Cl)CO,> 100,57.4,> 100,> 100,,55.7,,
CC(=O)O[C@H]1CC2C(C3CC[C@H](C(C)CCC(=O)O)[C@]31C)[C@H](OC(C)=O)C[C@@H]1CC3(CC[C@]21C)OOC1(CCC(C)CC1)OO3 (stereo not given in full),,,,,,,19.9 µM and 15 µM,
CCCCCCCCCCCC[C@@H](O)[C@H]1CC[C@H]([C@H](O)CC[C@H](O)[C@@H]2CC[C@@H](CCCCCCCC3=C[C@H](C)OC3=O)O2)O1,,,,,,,> 50 µM,GI50 (MDA-N): > 50 µM
Cc1nc2ccccc2c(=O)n1/N=C(\N=Nc1ccccc1Cl)c1ccccc1Cl,26.8,> 100,,> 100,> 100,> 100,,
CC(=O)Oc1c(C(=O)[O-])cc(C(C)C)cc1C(C)C.CC(=O)Oc1c(C(=O)[O-])cc(C(C)C)cc1C(C)C.CC(=O)Oc1c(C(=O)[O-])cc(C(C)C)cc1C(C)C.CC(=O)Oc1c(C(=O)[O-])cc(C(C)C)cc1C(C)C.[Cu+2].[Cu+2],,,,,,,33.4 µM,GI50 (MDA-N): 18.8 µM
O=NN(CCCl)C(=O)NC1CCC(CC(=O)O)CC1 (stereo not given),> 100,> 100,> 100,> 100,> 100,,,TGI (P388 leukemia): > 62.3 µM and 16.7 µM; TGI (P388/ADR leukemia): > 100 µM and 13.7 µM; TGI (SN12K1 renal): > 100 µM
CCOC(=O)/C(=C\c1cccc(C)c1)C(C)=O,,,,,,,31.4 µM,
CC12OC(=O)C(C#N)C1(C)C1C(=O)CCCC12 (stereo not given),> 100,> 100,,> 100,> 100,,,
Nc1nc(=S)c2c(ncn2CCO)[nH]1,,> 100,> 100,> 100,> 100,,,
COC12C(COC(=O)NCCO)C3=C(C(=O)C(C)=C(N)C3=O)N1CC1NC12 (stereo not given),,,,,,,> 264 µM,
